The source of these data is patent US20100112173A1, “ADDITIVE TO LOW-ALCOHOL OR SOFT DRINKS AND METHODS OF CONDITIONING DRINKS” (priority 2007, published 2010).

Series [1] is described as follows: Comparative toxicometry, Lim sub ch (30 days). It is filed as in vivo.
For series [2] the following is noted: cited from earlier work.
The nature of series [3]: Comparative toxicometry, DL 50 ks.
Series [4] is described as follows: Bioavailability / metabolism of the selenium compound.
The nature of series [5]: Comparative toxicometry, DL 50 m.
Series [6] in a line: Hazard (toxicity) class assignment.
The nature of series [7]: Comparative toxicometry, K sim coefficient. It is filed as in vivo.
For series [8] the following is noted: cited from earlier work. The source holds these as a separate data set.

The structures appear in SMILES notation.

As for `Cc1n[nH]c(C)c1[Se]c1c(C)n[nH]c1C` [DMDPS (Selekor-S), Di-(3,4)-methyldipyrazolylselenide], the “Lim sub ch (30 days)” value in series [1] is 400 to 800 mg/kg. In addition, the Maximum allowable concentrations in series [2] is 8,100 μg/kg. The “ADI (human)” value in series [2] (human) is greater than 0.02 mg/kg. The “DL 50 ks” value in series [3] is 6,000-8,100 mg/kg. For the same compound, in series [4], the “metabolism (bioavailability)” value is given as 85-95%. Also, the “DL 50 m” value in series [5] is recorded as 4,800-6,000 mg/kg. The “hazard class according to Zaugolnikov Table” value in series [6] was “fourth hazard class”. Moreover, in series [7] (Limetal), the “K sim (Limetal)” value is listed as “(>6)”. Moreover, the “K sim (according to Yu. S. Kogan)” value in series [7] is “(5)”.

For the compound `O=[Se]([O-])[O-].[Na+].[Na+]` [Na2SeO3, sodium selenite, reference compound], in series [2] (human), the “ADI (human)” value was 0.0007 mg/kg and the “MAC (human)” value is reported as 0.1 mg/m^3. Moreover, the “DL 50 ks” value in series [3] fell in the range of 7 to 14 mg/kg. In addition, the “DL 50 m” value in series [5] turned out to be 6 mg/kg. For the same compound, the “class of hazard subject to GOST 12.1.007-76” value in series [8] is listed as 1 (first) class of hazard. Moreover, the “K sim (according to Yu. S. Kogan)” value in series [7] is recorded as “(1.6)”.

Take `O=[Se](=O)(O)O` [sodium selenate]: the “class of hazard subject to GOST 12.1.007-76” value in series [8] is recorded as 1 (first) class of hazard.
